These results are taken from ChEMBL document CHEMBL1144578, “Chemotherapy of leishmaniasis Part VI: synthesis and bioevaluation of some novel terpenyl S,N- and N,N-acetals” (Eur J Med Chem, 2007).

Each structure is given as a SMILES string. The source made the active and inactive calls. The calls are words filed in the database; no cut-off is given here.

The subject of one series is Hamster. Kind of series: Toxicity in hamster at 50 mg/kg. It counts as organism-based. Details: dose 50 mg/kg. To be noted: cricetinae, in vivo.
In series [1] the test system is Leishmania donovani. Briefly: Inhibition of Leishmania donovani HOM/IN/80/DD8 in hamster at 50 mg/kg, ip after 7 days. Type of series: functional. To be noted: for inhibition in vivo at 50 mg/kg: HOM/IN/80/DD8, ip, 168 h, route intraperitoneal.
The test system of series [2] is Leishmania donovani. Kind of series: Inhibition of Leishmania donovani HOM/IN/80/DD8 in hamster at 50 mg/kg, po after 28 days. It counts as functional. To be noted: HOM/IN/80/DD8, 672 h.
In series [3] the test system is Leishmania donovani. Kind of series: Inhibition of Leishmania donovani HOM/IN/80/DD8 in hamster at 50 mg/kg, ip after 28 days. It counts as functional. The conditions noted are these: HOM/IN/80/DD8, ip, 672 h, route intraperitoneal.
Series [4] relates to Leishmania donovani. Briefly: Inhibition of Leishmania donovani HOM/IN/80/DD8 in hamster at 50 mg/kg, po after 7 days. It counts as functional. To be noted: HOM/IN/80/DD8, 168 h.
Series [5] relates to Leishmania donovani. Kind of series: Inhibition of Leishmania donovani HOM/IN/80/DD8 in hamster at 12.5 mg/kg, po after 7 days. To be noted: HOM/IN/80/DD8, 168 h. Type of series: functional.
Series [6] relates to Leishmania donovani. Kind of series: Inhibition of Leishmania donovani HOM/IN/80/DD8 in hamster at 12.5 mg/kg, po after 28 days. It counts as functional. To be noted: HOM/IN/80/DD8, 672 h.

Regarding `CC1=C(/C=C/C(=O)C=C(N2CCNCC2)N2CCNCC2)C(C)(C)CCC1`, the Activity entry in the series with Hamster is given as “Toxic”.

As for `CS/C(=C/C(=O)/C=C/C1=C(C)CCCC1(C)C)Nc1ccc(F)cc1`, in the series on Leishmania donovani [1], 50 mg/kg produced 31% inhibition in vivo.

Consider `CCN(/C(=C\C(=O)/C=C/C1=C(C)CCCC1(C)C)SC)c1ccccc1`, for which the outcome with Leishmania donovani [1] was inactive.

With `CC1=C(/C=C/C(=O)C=C2NCCN2)C(C)(C)CCC1`, the inhibition in vivo at 50 mg/kg with Leishmania donovani [2] came out at 71%; in the series with Leishmania donovani [3] it was 65%; in the series on Leishmania donovani [1] it was 30%; in the series with Leishmania donovani [4], 40%.

As for `CC1=C(/C=C/C(=O)C=C(N2CCOCC2)N2CCOCC2)C(C)(C)CCC1`, the outcome in the series on Leishmania donovani [1] was inactive.

On to `CS/C(=C/C(=O)/C=C/C1=C(C)CCCC1(C)C)Nc1ccccc1`, for which the outcome with Leishmania donovani [1] was inactive.

Regarding `CS/C(=C/C(=O)/C=C/C1=C(C)CCCC1(C)C)Nc1ccc(Cl)cc1`, 50 mg/kg produced 18% inhibition in vivo in the series with Leishmania donovani [1].

Consider `CCCCCCCCCCCCCCCCOP(=O)([O-])OCC[N+](C)(C)C` [MILTEFOSINE], for which the inhibition in vivo at 12.5 mg/kg with Leishmania donovani [5] is 94%; with Leishmania donovani [6], 69%.

As to `CS/C(=C/C(=O)/C=C/C1=C(C)CCCC1(C)C)Nc1cccc(F)c1`, at 50 mg/kg the inhibition in vivo in the series on Leishmania donovani [1] was 53%.

For the molecule `CS/C(=C/C(=O)/C=C/C1=C(C)CCCC1(C)C)NC1CCCCC1`, in the series with Leishmania donovani [1], the inhibition in vivo at 50 mg/kg was found to be 46%.

For the molecule `COc1ccc(N/C(=C\C(=O)/C=C/C2=C(C)CCCC2(C)C)SC)cc1`, testing at 50 mg/kg in the series on Leishmania donovani [1] gave an inhibition in vivo of 52%.
